{
  "source": "patent US12582652B2",
  "about": "“3-(ethoxydifluoromethyl)-6-(5-fluoro-6-(2,2,2-trifluoroethoxy)pyridin-3-yl)-[1,2,4]triazolo[4,3-a]pyrazine as an ion channel modulator” (Praxis Precision Medicines, Inc., priority 2022, dated 2026)",
  "key": {"[1]": {"test": "2-part Phase 1 trial (28 days; OXC combination): pharmacokinetics", "source_text": "(§1) This was a 2-part randomized, placebo-controlled Phase 1 trial in healthy participants aged 18-55 years. […] PD effects were examined on quantitative EEG (qEEG; resting and vigilant conditions) and stimulated EEG using auditory steady state response (ASSR). A total of 48 participants were enrolled; Part A, n=30; Part B, n=18."}, "[2]": {"test_system": "Scn8a^N1768D/+ transgenic mouse", "test": "Audiogenic induced seizures in Scn8a N1768D/+ mouse model", "type": "in vivo", "method": "Both male and female N1768D (D/+) mice, 8-12 weeks old, were used in the study. Compound 1 was administered orally (p.o.) at three doses (1 mg/kg, 3 mg/kg, 10 mg/kg) and also vehicle 1 hour prior to testing. The mice were randomized such that at the completion of the study each individual mouse had been evaluated at each test dose of Compound 1 and vehicle. A minimum of 3 days was allowed to elapse before retesting the mice. At the time of testing, mice were taken from their home cage and transferred to a clean test cage located in a separate testing room where they were allowed to acclimate for about 20 seconds before the onset of the acoustic stimulus. To induce audiogenic seizures, a 15 kHz signal was generated using Tone Generator software (NCH Software, Inc.), amplified using a Kinter K3118 stereo amplifier (Kinter USA), and converted to sound using a small 3-watt speaker lowered into the testing chamber. The stimulus was applied for 30 seconds unless a seizure was detected before the 30-second time point, in which case the audiogenic stimulus was terminated. Videos of the event were recorded using a laptop webcam. On the final day of testing, brains and plasma were collected from the D/+ mice immediately after audiogenic seizure testing to determine concentrations of Compound 1. A separate cohort of 8 age-matched WT mice were also included (n=2/dose level) to achieve a sample size of n=4 for PK for each dose level. Brain and plasma specimens were submitted for bioanalytical analysis."}, "hNaV1.5": {"target": "hNaV1.5 (Homo sapiens, UniProt Q14524)", "sequence (Q14524 1-2015 isoform Q14524-2)": "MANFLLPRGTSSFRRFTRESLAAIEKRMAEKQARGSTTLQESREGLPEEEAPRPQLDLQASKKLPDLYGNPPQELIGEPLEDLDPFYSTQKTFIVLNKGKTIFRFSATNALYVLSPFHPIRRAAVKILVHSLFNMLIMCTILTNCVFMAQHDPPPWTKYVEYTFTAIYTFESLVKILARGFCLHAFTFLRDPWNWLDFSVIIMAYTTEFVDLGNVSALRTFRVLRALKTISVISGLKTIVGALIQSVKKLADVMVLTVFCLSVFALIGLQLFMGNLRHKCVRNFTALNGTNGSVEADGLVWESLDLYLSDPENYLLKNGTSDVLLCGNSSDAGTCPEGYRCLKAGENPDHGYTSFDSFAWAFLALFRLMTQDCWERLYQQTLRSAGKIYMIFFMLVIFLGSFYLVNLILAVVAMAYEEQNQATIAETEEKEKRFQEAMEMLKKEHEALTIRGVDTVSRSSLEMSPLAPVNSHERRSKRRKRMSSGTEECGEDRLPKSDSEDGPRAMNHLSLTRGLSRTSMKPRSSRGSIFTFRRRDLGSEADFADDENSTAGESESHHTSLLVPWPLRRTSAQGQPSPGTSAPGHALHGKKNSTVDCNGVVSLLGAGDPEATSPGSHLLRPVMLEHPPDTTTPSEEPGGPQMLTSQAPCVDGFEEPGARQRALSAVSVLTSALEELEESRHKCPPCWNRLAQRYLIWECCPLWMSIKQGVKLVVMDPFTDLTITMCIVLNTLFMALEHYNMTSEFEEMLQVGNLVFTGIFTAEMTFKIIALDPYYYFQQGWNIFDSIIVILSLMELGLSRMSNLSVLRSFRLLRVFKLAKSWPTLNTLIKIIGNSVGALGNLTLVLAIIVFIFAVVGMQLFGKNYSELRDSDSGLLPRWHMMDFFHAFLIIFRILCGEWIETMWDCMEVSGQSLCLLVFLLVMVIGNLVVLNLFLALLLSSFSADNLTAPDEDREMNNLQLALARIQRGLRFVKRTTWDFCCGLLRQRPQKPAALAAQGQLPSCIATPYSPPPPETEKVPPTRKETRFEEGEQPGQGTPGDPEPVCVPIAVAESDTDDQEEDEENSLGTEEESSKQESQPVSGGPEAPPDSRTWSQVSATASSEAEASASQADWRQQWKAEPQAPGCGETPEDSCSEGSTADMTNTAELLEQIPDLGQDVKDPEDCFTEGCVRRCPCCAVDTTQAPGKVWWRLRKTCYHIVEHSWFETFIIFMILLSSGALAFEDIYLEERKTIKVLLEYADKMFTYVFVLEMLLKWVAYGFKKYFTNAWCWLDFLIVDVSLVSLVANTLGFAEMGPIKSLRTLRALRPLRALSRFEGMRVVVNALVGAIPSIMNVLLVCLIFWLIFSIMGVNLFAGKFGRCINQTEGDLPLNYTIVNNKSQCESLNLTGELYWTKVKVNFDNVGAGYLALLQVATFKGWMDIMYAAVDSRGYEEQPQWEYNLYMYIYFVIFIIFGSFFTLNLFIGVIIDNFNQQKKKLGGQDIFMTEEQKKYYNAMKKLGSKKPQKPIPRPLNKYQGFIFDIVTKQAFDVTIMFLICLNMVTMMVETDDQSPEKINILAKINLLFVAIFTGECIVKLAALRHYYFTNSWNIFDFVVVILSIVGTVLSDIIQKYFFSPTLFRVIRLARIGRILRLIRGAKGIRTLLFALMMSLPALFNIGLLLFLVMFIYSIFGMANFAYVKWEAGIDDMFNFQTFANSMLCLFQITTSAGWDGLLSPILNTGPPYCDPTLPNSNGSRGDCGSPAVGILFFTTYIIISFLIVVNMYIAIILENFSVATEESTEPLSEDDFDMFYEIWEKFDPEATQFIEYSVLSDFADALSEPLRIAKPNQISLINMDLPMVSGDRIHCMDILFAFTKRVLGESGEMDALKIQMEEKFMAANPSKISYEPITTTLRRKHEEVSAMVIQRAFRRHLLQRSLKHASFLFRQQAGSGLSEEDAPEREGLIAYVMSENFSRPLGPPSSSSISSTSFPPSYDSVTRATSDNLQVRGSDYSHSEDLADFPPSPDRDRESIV", "test": "Peak INa voltage-dependent block, patch clamp", "type": "cell-based", "method": "Voltage Dependent Block (VDB): VDB protocols used a depolarized voltage to keep channels in half-inactivated (resting) states. This allowed equilibrium binding and accurate determination of isoform selectivity (in the absence of biological features). For each cell, the midpoint of inactivation (V0.5) was determined using a 5,000 ms step to increase voltages (10 mV increments) to inactivate the channel immediately followed by a 2 ms step to 0 mV to maximally activate the channels. The holding potential (Vhold) was −120 mV between steps. The peak INa measured in response to the step to 0 mV was plotted and fitted with a Boltzmann equation to determine the V0.5. This value was then used for the VDB protocol. Pharmacology was measured during peak INa in response to step to 0 mV. No leak subtraction was used."}, "healthy participants": {"test_system": "healthy participants", "test": "2-part Phase 1 trial (28 days; OXC combination): qEEG and ASSR pharmacodynamics", "type": "in vivo, human", "details": "Part A, 90 mg QD 28 days", "source_text": "as §1"}, "human NaV1.6": {"target": "T1, human NaV1.6 (Homo sapiens, UniProt Q9UQD0)", "T1 construct": "stably expressing either human NaV1.6 (NP_055006); expressed in transfected cells", "T1 sequence (Q9UQD0 whole entry)": "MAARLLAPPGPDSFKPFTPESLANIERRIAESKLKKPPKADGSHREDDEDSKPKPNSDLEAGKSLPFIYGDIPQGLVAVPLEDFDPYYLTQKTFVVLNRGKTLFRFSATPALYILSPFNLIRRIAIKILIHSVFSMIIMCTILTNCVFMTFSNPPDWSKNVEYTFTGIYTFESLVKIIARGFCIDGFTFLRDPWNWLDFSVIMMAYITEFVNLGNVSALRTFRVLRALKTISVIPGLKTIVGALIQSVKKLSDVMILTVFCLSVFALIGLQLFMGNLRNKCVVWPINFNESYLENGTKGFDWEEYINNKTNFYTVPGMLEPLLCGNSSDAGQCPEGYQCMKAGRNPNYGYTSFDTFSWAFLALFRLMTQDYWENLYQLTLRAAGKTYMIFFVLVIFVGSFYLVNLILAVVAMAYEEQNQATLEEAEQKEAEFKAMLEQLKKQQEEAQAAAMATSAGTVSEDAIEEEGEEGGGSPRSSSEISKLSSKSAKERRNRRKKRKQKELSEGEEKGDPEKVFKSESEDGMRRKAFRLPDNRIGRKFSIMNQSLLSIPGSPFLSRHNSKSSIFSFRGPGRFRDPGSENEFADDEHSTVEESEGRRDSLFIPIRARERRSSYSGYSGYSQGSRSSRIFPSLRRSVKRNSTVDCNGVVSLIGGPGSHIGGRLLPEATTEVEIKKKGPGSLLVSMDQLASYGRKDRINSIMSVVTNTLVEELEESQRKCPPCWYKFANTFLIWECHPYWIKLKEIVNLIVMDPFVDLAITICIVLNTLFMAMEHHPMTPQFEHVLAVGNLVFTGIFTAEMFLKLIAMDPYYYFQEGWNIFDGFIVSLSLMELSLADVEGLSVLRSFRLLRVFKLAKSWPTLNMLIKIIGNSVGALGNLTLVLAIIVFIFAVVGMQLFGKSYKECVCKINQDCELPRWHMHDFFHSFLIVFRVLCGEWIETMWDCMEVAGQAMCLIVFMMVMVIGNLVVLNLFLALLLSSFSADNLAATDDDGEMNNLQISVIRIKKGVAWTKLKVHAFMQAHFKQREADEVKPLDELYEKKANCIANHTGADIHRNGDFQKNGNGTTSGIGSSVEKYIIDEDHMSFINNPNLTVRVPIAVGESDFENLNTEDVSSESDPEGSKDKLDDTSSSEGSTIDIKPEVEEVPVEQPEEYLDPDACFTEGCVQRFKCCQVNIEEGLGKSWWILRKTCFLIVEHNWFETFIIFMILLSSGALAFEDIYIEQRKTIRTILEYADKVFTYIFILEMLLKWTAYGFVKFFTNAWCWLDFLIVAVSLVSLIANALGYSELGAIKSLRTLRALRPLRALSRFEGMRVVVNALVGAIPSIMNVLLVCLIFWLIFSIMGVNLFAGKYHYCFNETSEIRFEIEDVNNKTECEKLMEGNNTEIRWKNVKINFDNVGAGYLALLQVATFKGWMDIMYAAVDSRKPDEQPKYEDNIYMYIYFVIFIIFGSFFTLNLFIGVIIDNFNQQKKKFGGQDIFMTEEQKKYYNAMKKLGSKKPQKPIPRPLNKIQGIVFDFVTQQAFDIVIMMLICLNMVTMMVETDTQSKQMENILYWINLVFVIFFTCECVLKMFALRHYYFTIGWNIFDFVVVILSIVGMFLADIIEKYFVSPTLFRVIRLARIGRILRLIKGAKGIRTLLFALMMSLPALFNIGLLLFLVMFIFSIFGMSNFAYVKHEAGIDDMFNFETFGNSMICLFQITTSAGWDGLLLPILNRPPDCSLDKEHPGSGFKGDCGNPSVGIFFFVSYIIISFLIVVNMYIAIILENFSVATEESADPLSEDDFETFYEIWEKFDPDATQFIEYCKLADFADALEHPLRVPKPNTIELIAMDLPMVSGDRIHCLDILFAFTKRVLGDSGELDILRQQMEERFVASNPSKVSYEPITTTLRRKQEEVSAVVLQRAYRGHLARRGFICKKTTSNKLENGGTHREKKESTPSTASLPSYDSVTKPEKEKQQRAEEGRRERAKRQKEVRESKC", "test": "Peak INa tonic block (TB), PatchXpress patch clamp", "type": "cell-based", "method": "HEK-293 cell lines stably expressing either human NaV1.6 (NP_055006), mouse NaV1.6 (NP_035453.2), or rat NaV1.6 (NP_062139) were used. All cells were seeded at 2×10^6 cells per Nunc T75 flask for 2 days in culture. At time of harvest for assays, the cell counts were approximately 6×10^6 cells. Cells were washed (1×) in DPBS (Hyclone, Cat #SH30028.03) for approximately 30 seconds. 1 mL of 1×0.05% Trypsin-EDTA (GIBCO Cat #25300-054) was added and swirled around to cover the bottom of the flask and was allowed to sit on the cells for approximately 4 minutes (±90% of the cells were lifted by light tapping of the flask). 10 mL of warmed media (DMEM high glucose media Hyclone, SH30022.02 supplemented with 10% Fetal Bovine Serum, 2 mM Sodium Pyruvate, 10 mM HEPES and 400 μg/mL G418) was added to inactivate the trypsin. Cells were triturated until a single cell suspension was achieved. A cell count was performed and cells were aliquoted into a 250 ml centrifuge tube at a concentration of 2×10^5/mL in +30 ml of prewarmed media. The 250 mL centrifuge tube was placed on a rocker in an incubator set at 28° C. and gently rocked for approximately 1 hour to allow cells to recover. Cell aliquots of 5 mL (1×10^6 cells) were placed in a 15 mL centrifuge tube and spun at 100×g for 2 minutes. Supernatant was removed leaving a cell pellet. 100 μL of external recording solution was added to the pellet and triturated 20 times to achieve a single cell suspension and then transferred to a 1.5 mL tube for placement in the PatchXpress® (Molecular Devices).\nCompound 1 was provided as powder and prepared as 10 mM DMSO stocks in 1 dram glass vials prior to assay. Immediately prior to assay, Compound 1 was diluted with DMSO to 300×, the designated final assay concentration. Assay dilutions (1× concentration) were prepared by pipetting 3 μL of diluted Compound 1 into 897 μL of extracellular solution in a 1 mL glass shell vial. Vials were capped and vortexed until initiation of the PatchXpress® (Molecular Devices) recording protocol.\nThe same intracellular recording solution was used for the persistent and peak INa assays, which contained: 135 mM CsF, 10 mM CsCl, 5 mM NaCl, 10 mM HEPES, 5 mM EGTA at a pH of 7.4 (adjusted with CsOH) and a measured osmolarity of 298 mOsm (adjusted with mannitol). For the persistent INa assay, the external recording solution contained: 135 mM NaCl, 5.4 mM KCl, 5 mM glucose, 2 mM CaCl2), 1 mM MgCl2, 10 mM HEPES, and 200 nM ATX-II (sea anemone toxin, Alomone Labs; Jerusalem, Israel) at a pH of 7.4 (adjusted with NaOH) and a measured osmolarity of 300 mOsm (adjusted with mannitol). For the peak INa assays, the external recording solution contained: 100 mM NaCl, 35 mM NMDG, 5.4 mM KCl, 5 mM glucose, 2 mM CaCl2), 1 mM MgCl2, and 10 mM HEPES at a pH of 7.4 (adjusted with NaOH) and a measured osmolarity of 300 mOsm (adjusted with mannitol).\nAll studies were performed using the PatchXpress® (Molecular Devices) automated patch clamp platform (Molecular Devices) using the whole cell configuration. Recordings were performed at room temperature. Data were collected using Patch Commander software (Molecular Devices) and processed using DataXpress 2.0 (Molecular Devices). Cell acceptance criteria were continuously monitored by custom scripts during the recording. Acceptance criteria for all assays were: baseline peak INa>800 pA, Rseal>200 MΩ, and, where appropriate, persistent INa>100 pA. Compensation was 50% and leak subtraction was not used. Currents were filtered at 5 kHz and digitized at 32.5 kHz. Raccess and Rseal were monitored throughout the recording and cells with Raccess>10 MΩ or Rseal<200 MΩ were terminated automatically by script.\nTonic Block (TB): Tonic Block (TB) protocols used low stimulation rates (about 0.1 Hz) and negative potentials (−120 mV) to keep channels in closed (resting) states. Pharmacology was measured during peak INa in response to step to 0 mV. No leak subtraction was used."}},
  "data": [
    {"smiles": "CCOC(F)(F)c1nnc2cnc(-c3cnc(OCC(F)(F)F)c(F)c3)cn12", "note": "[Compound 1, 3-(ethoxydifluoromethyl)-6-(5-fluoro-6-(2,2,2-trifluoroethoxy)pyridin-3-yl)-[1,2,4]triazolo[4,3-a]pyrazine]", "values": [
      {"measurement": "approach to steady state", "setting": "[1]; 90 mg QD for 28 days, Part A", "result": "approached steady state"},
      {"measurement": "increase in Compound 1 concentrations over human-equivalent dose required for efficacy in preclinical MES models", "setting": "[1]; Part A, 90 mg QD", "result": 13, "unit": "fold"},
      {"measurement": "Compound 1 exposure with OXC coadministration", "setting": "[1]; Part B, data not shown", "result": "did not appear to be altered"},
      {"measurement": "protection from audiogenic seizures", "setting": "[2]; 10 mg/kg p.o.", "result": "complete protection"},
      {"measurement": "inhibition of audiogenic seizures", "setting": "[2]; 1, 3, 10 mg/kg p.o., 1 hour prior to testing", "result": "dose dependent inhibition"},
      {"measurement": "protection from seizures (FIG. 14B)", "setting": "[2]; Scn8a N1768D DEE mouse model", "result": "completely block seizures"},
      {"measurement": "preference for persistent INa over peak INa voltage-dependent block", "setting": "hNaV1.5", "result": 5.8, "unit": "fold"},
      {"measurement": "qEEG (Delta and Theta power) and ASSR (PLF and Evoked Power) vs placebo", "setting": "healthy participants", "result": "Statistically significant differences"},
      {"measurement": "Ratio to Pers. INa (Peak INa TB / persistent INa)", "setting": "human NaV1.6; hNaV1.6", "result": 60},
      {"measurement": "IC50", "setting": "human NaV1.6; hNaV1.6, 0.1 Hz, resting state", "result": 8.47, "unit": "µM"}
    ]}
  ]
}
